Reference: patent US11945796B2, “Substituted pyridine derivatives as SARM1 inhibitors” (Nura Bio, Inc., priority 2020, dated 2024)
Where two headings read alike, the source gives them in different places.

Target: T1, human SARM1(50-724) (Homo sapiens, UniProt Q6SZW1)
T1 construct: 40 nM human SARM1(50-724)
T1 sequence (Q6SZW1 50-724): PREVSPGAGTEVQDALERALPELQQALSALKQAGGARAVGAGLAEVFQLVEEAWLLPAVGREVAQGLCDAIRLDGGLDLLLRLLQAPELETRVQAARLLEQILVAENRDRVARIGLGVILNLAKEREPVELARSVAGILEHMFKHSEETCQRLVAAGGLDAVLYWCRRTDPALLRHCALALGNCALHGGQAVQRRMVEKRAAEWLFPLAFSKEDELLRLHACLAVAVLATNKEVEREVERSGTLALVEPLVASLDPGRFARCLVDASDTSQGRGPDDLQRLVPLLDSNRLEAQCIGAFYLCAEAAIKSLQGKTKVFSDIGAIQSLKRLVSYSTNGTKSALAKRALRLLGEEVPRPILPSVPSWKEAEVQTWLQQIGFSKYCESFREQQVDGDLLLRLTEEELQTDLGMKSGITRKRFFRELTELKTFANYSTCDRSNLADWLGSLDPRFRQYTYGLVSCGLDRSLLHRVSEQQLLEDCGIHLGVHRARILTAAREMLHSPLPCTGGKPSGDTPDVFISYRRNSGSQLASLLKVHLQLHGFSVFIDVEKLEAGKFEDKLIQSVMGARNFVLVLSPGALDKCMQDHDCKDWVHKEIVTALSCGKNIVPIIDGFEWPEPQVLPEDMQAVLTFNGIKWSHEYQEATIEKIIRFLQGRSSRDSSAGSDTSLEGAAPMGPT
Assay: SARM1 NADase biochemical assay (HPLC peak areas of NAD and NAM)
Settings: for IC50: dose-response, 1:3 serial dilution from 100 μM, 40 nM SARM1, 0.3 mM NMN, 20 μM NAD, 60 min rt
Protocol: The reaction was incubated at room temperature for 60 minutes and quenched with 20 μL of 0.4% formic acid. […] Total run time for each sample was 4 minutes. […] Samples were run at a flow rate of 0.8 mL/min at 55° C. Peak areas of NAD and NAM were determined using OpenLAB CDS (Chem Station edition) software. For dose-response, the compound was diluted serially 1:3 in DMSO and added to the reaction starting at a final compound concentration of 100 μM in 1% DMSO.

[1] = 50 μM compound, NAD peak area, read-out: Avg NAD % inhibition at 50 μM
[2] = 50 μM compound, NAM peak area, read-out: Avg NAM % inhibition at 50 μM
[3] = read-out: Avg NAD % inhibition at 50 μM
[4] = read-out: Avg NAM % inhibition at 50 μM

Compound	inhibition at 50 µM [1] [%]	inhibition at 50 µM [2] [%]	IC50 [µM]	also measured
O=C(Nc1ccn(Cc2ccncc2)n1)c1ccccc1 [Example 69, N-(1-(Pyridin-4-ylmethyl)-1H-pyrazol-3-yl)benzamide]				inhibition at 50 µM [3]: 51 to 100%; inhibition at 50 µM [4]: 51 to 100%
O=S(=O)(Nc1ccn(Cc2ccncc2)n1)c1ccccc1 [Example 70, N-(1-(Pyridin-4-ylmethyl)-1H-pyrazol-3-yl)benzenesulfonamide]				inhibition at 50 µM [3]: 51 to 100%; inhibition at 50 µM [4]: 51 to 100%
COc1ccc(S(=O)(=O)N(C)c2ccn(Cc3ccncc3)n2)cc1 [Example 75, 4-Methoxy-N-methyl-N-(1-(pyridin-4-ylmethyl)-1H-pyrazol-3-yl)benzenesulfonamide]				inhibition at 50 µM [3]: 0 to 50%; inhibition at 50 µM [4]: 0 to 50%
CN(c1ccn(Cc2ccncc2)n1)S(=O)(=O)c1cccc(F)c1 [Example 77, 3-Fluoro-N-methyl-N-(1-(pyridin-4-ylmethyl)-1H-pyrazol-3-yl)benzenesulfonamide]				inhibition at 50 µM [3]: 0 to 50%; inhibition at 50 µM [4]: 0 to 50%
Cc1cc(Cc2ccncc2)nn1CC(F)(F)F [Example 83, 4-((5-Methyl-1-(2,2,2-trifluoroethyl)-1H-pyrazol-3-yl)methyl)pyridine]			10 to 100	
Cc1cnccc1Cn1ccc(NCC(F)(F)F)n1 [Example 84, 1-((3-Methylpyridin-4-yl)methyl)-N-(2,2,2-trifluoroethyl)-1H-pyrazol-3-amine]			10 to 100	
CCNc1ccn(Cc2ccncc2)n1 [Example 85, N-Ethyl-1-(pyridin-4-ylmethyl)-1H-pyrazol-3-amine]				inhibition at 50 µM [3]: 0 to 50%; inhibition at 50 µM [4]: 0 to 50%
CC(=O)Nc1ccn(Cc2ccncc2)n1 [Example 87, N-(1-(Pyridin-4-ylmethyl)-1H-pyrazol-3-yl)acetamide]				inhibition at 50 µM [3]: 0 to 50%; inhibition at 50 µM [4]: 0 to 50%
C[C@H](c1ccncc1)n1ccc(NCC(F)(F)F)n1 [Example 89, (R)-1-(1-(Pyridin-4-yl)ethyl)-N-(2,2,2-trifluoroethyl)-1H-pyrazol-3-amine]			10 to 100	
CN(CC(F)(F)F)c1ccn(Cc2ccncc2)n1 [Example 90, N-Methyl-1-(pyridin-4-ylmethyl)-N-(2,2,2-trifluoroethyl)-1H-pyrazol-3-amine]			10 to 100	
FCCNc1ccn(Cc2ccncc2)n1 [Example 96, N-(2-Fluoroethyl)-1-(pyridin-4-ylmethyl)-1H-pyrazol-3-amine]				inhibition at 50 µM [3]: 51 to 100%; inhibition at 50 µM [4]: 51 to 100%
FC(F)(F)C(F)(F)c1ccn(Cc2ccncc2)n1 [Example 103, 4-{[3-(1,1,2,2,2-Pentafluoroethyl)-1H-pyrazol-1-yl]methyl}pyridine]			1 to 10	
Cc1cnccc1Cn1ccc(CC(F)(F)F)n1 [Example 109, 3-Methyl-4-{[3-(2,2,2-trifluoroethyl)-1H-pyrazol-1-yl]methyl}pyridine]			1 to 10	
(R)-2-(1-(1-(pyridin-4-yl)ethyl)-1H-pyrazol-3-yl)acetonitrile and (S)-2-(1-(1-(pyridin-4-yl)ethyl)-1H-pyrazol-3-yl)acetonitrile [Example 28]			1 to 10	
(R)-2-((1-(1-(Pyridin-4-yl)ethyl)-1H-pyrazol-3-yl)amino)acetonitrile and (S)-2-((1-(1-(pyridin-4-yl)ethyl)-1H-pyrazol-3-yl)amino)acetonitrile [Example 6]			1 to 10	
(R)-3-Chloro-4-(1-(1-(2,2,2-trifluoroethyl)-1H-pyrazol-3-yl)ethyl)pyridine and (S)-3-Chloro-4-(1-(1-(2,2,2-trifluoroethyl)-1H-pyrazol-3-yl)ethyl)pyridine [Example 113]			1 to 10	
(R)-3-Fluoro-4-(1-(1-(2,2,2-trifluoroethyl)-1H-pyrazol-3-yl)ethyl)pyridine and (S)-3-Fluoro-4-(1-(1-(2,2,2-trifluoroethyl)-1H-pyrazol-3-yl)ethyl)pyridine [Example 78]			1 to 10	
(R)-4-(1-(1-(2,2-Difluoroethyl)-1H-pyrazol-3-yl)ethyl)pyridine and (S)-4-(1-(1-(2,2-Difluoroethyl)-1H-pyrazol-3-yl)ethyl)pyridine [Example 110]			10 to 100	
(R)-4-(1-(1-(2,2-Difluoroethyl)-1H-pyrazol-3-yl)ethyl)pyridine and (S)-4-(1-(1-(2,2-Difluoroethyl)-1H-pyrazol-3-yl)ethyl)pyridine [Example 111]			1 to 10	

Further lines, with some results ahead:

inhibition at 50 µM [1] [%]	inhibition at 50 µM [2] [%]	IC50 [µM]	Compound	also measured
51 to 100	51 to 100	10 to 100	O=C(Nc1ccn(Cc2ccncc2)n1)c1cc(Br)cs1 [Example 65, 4-Bromo-N-(1-(pyridin-4-ylmethyl)-1H-pyrazol-3-yl)thiophene-2-carboxamide]	
		1 to 10	O=C(Nc1ccn(Cc2ccncc2)n1)c1csc(Cl)c1 [Example 66, 5-Chloro-N-(1-(pyridin-4-ylmethyl)-1H-pyrazol-3-yl)thiophene-3-carboxamide]	
51 to 100	0 to 50		Cc1cc(C(=O)Nc2ccn(Cc3ccncc3)n2)cs1 [Example 67, 5-Methyl-N-(1-(pyridin-4-ylmethyl)-1H-pyrazol-3-yl)thiophene-3-carboxamide]	
		10 to 100	O=C(Nc1ccn(Cc2ccncc2)n1)C(F)(F)F [Example 68, 2,2,2-Trifluoro-N-(1-(pyridin-4-ylmethyl)-1H-pyrazol-3-yl)acetamide]	
0 to 50	0 to 50		O=S(=O)(Cc1ccccc1)Nc1ccn(Cc2ccncc2)n1 [Example 71, 1-Phenyl-N-(1-(pyridin-4-ylmethyl)-1H-pyrazol-3-yl)methanesulfonamide]	
0 to 50	0 to 50		CC1(C)Oc2ccc(C(=O)Nc3ccn(Cc4ccncc4)n3)cc2O1 [Example 72, 2,2-Dimethyl-N-(1-(pyridin-4-ylmethyl)-1H-pyrazol-3-yl)benzo[d][1,3]dioxole-5-carboxamide]	
51 to 100			O=C(Nc1ccn(Cc2ccncc2)n1)c1ccc(O)c(O)c1 [Example 73, 3,4-Dihydroxy-N-(1-(pyridin-4-ylmethyl)-1H-pyrazol-3-yl)benzamide]	
		1 to 10	COc1ccc(S(=O)(=O)Nc2ccn(Cc3ccncc3)n2)cc1 [Example 74, 4-Methoxy-N-(1-(pyridin-4-ylmethyl)-1H-pyrazol-3-yl)benzenesulfonamide]	
0 to 50	0 to 50	1 to 10	O=S(=O)(Nc1ccn(Cc2ccncc2)n1)c1cccc(F)c1 [Example 76, 3-Fluoro-N-(1-(pyridin-4-ylmethyl)-1H-pyrazol-3-yl)benzenesulfonamide]	
0 to 50	0 to 50		CNc1ccn(Cc2ccncc2)n1 [Example 86, N-Methyl-1-(pyridin-4-ylmethyl)-1H-pyrazol-3-amine]	
0 to 50	0 to 50		O=S(=O)(Nc1ccn(Cc2ccncc2)n1)C(F)(F)F [Example 88, 1,1,1-Trifluoro-N-(1-(pyridin-4-ylmethyl)-1H-pyrazol-3-yl)methanesulfonamide]	
0 to 50	0 to 50		c1cc(Cn2ccc(NCC3CC3)n2)ccn1 [Example 93, N-(Cyclopropylmethyl)-1-(pyridin-4-ylmethyl)-1H-pyrazol-3-amine]	
0 to 50	0 to 50		CCCNc1ccn(Cc2ccncc2)n1 [Example 94, N-Propyl-1-(pyridin-4-ylmethyl)-1H-pyrazol-3-amine]	
0 to 50	0 to 50		c1cc(Cn2ccc(NCC3CCC3)n2)ccn1 [Example 95, N-(Cyclobutylmethyl)-1-(pyridin-4-ylmethyl)-1H-pyrazol-3-amine]	
0 to 50	0 to 50		c1cc(Cn2ccc(NC3CCC3)n2)ccn1 [Example 97, N-Cyclobutyl-1-(pyridin-4-ylmethyl)-1H-pyrazol-3-amine]	
0 to 50	0 to 50		c1cc(Cn2ccc(NC3CC3)n2)ccn1 [Example 98, N-Cyclopropyl-1-(pyridin-4-ylmethyl)-1H-pyrazol-3-amine]	
		1 to 10	FC(F)Cc1ccn(Cc2ccncc2)n1 [Example 102, 4-{[3-(2,2-Difluoroethyl)-1H-pyrazol-1-yl]methyl}pyridine]	
0 to 50	0 to 50		O=C(CCc1ccc(Cl)cc1)Nc1ccn(Cc2ccncc2)n1 [Example 106, 3-(4-Chlorophenyl)-N-{1-[(pyridin-4-yl)methyl]-1H-pyrazol-3-yl}propanamide]	
